What all share (type): functional
For experiment [1], the system named is NCI-H460. Briefly: Anticancer activity against human NCI-H460 cells assessed as cell growth at 100 uM after 48 hrs by sulforhodamine B assay. Conditions: NCI-H460, 48 h, read-out: Activity. (In SRB staining, fixed cells bind dye roughly in proportion to their protein.)
Experiment [2] concerns SF-268. Briefly: Anticancer activity against human SF268 cells assessed as cell growth at 100 uM after 48 hrs by sulforhodamine B assay. The following applies: SF-268, 48 h, read-out: Activity.
In experiment [3] the test system is MCF7. Kind of experiment: Anticancer activity against human MCF7 cells assessed as cell growth at 100 uM after 48 hrs by sulforhodamine B assay. The following applies: MCF7, 48 h, read-out: Activity.

Regarding `COc1ccc(Oc2nc3cc(N)cc(N)c3nc2-c2ccccc2)cc1OC`, the growth at 100 µM is 118% in experiment [1], 131% in experiment [2] and 117% in experiment [3].
On to `COc1ccc(Sc2nc3cc(N)cc(N)c3nc2-c2ccccc2)cc1OC`, for which the growth at 100 µM in experiment [1] worked out at 119%; in experiment [2], 136%; in experiment [3], 121%.

For the origin of these results see ChEMBL document CHEMBL1137710, “Synthesis and in vitro antitumor activity of new quinoxaline derivatives” (2009).
